Key:
[1] = Brain and plasma compound levels by LC-MS/MS after 5 mg/kg i.p. injection into mice
Protocol: One-month old B6C3HF1 female mice were given intraperitoneal injections of compounds at 5 mg/kg. 1 hour after injection, mice were lethally anesthetized with an intraperitoneal injection of ketamine hydrochloride (1 mg/10 g) and xylazine (0.1 mg/10 g) and perfused intracardially with PBS in accordance with protocols approved by the University of Pennsylvania.
Brain samples were homogenized in 10 mM ammonium acetate, pH 5.7 (1:2; w/v) using a handheld sonic homogenizer. Compound from 50 μL of brain homogenate or plasma was extracted with 200 μL acetonitrile, centrifuged, and the supernatant removed for LC/MS/MS analysis. Compounds were detected using multiple reaction monitoring (MRM) of their specific collision-induced ion transitions and quantified using peak areas.
The LC/MS/MS system was comprised of an Agility UPLC, a TQ MS, and controlled using MassLynx software (Waters Corporation, Milford, Mass., USA). Samples were separated on an Aquity BEH C18 column (1.7 μm, 2.1×50 mm) at 35° C. For operation in positive electrospray ionization mode, the mobile phase A was 0.1% (v/v) formic acid, and B was either acetonitrile or methanol with 0.1% (v/v) formic acid. For operation in negative electrospray ionization mode, the mobile phase A was 10 mM ammonium acetate, and B was methanol with 10 mM ammonium acetate, Injections of 5 μL were separated at a flow rate of 0.6 mL/min using a gradient from 5% to 95% B over two minutes followed by wash and re-equilibration steps.
The MS was operated with a desolvation temperature of 450° C. and a source temperature of 150° C. Desolvation and source nitrogen gas flows were 900 L/hr and 50 L/hr, respectively. Collision cell argon gas flow was 0.1 mL/min. Source and analyzer voltages were optimized for each compound using the MassLynx auto tune utility. Compound standards at 1000 ng/mL in 50% acetonitrile were infused at 30 μL/min and combined with flow from the UPLC at 0.6 mL/min and 50% B.
Standard curves were generated from spiked brain homogenate and plasma prepared at 4, 40, 400 and 4000 ng/mL and extracted as above. Peak area was plotted versus concentration and a 1/x weighted linear regression curve was used to quantify the unknowns using the average peak area from triplicate injections,
The following experiments were designed to analyze TP receptor antagonists to determine their relative BBB penetration. The TP receptor antagonists were administered via i.p. injection at 5 mg/kg to normal mice, and brain and plasma compound concentrations were assessed by LC-MS/MS at 1 and 4 hours after dosing.
To examine the blood-brain barrier permeability of these compounds, one-month old B6C3F1 mice were injected at 5 mg/kg and sacrificed 1 hour after injection.

[2] = Unbound fractions in plasma and brain homogenates by equilibrium dialysis; format: in vitro ADME
Excerpt: Without wishing to be bound by any particular theory, it is believed that it is possible (although uncommon) for a BBB-permeable compound to have a very low B/P ratio if the fraction of free, unbound drug is much greater in the […]. More specifically, a drug that is freely diffusible across the BBB will at equilibrium have a free drug B/P ratio (B/Pfree)=1, where B/Pfree=B/P×fu(brain))/fu(plasma) (Maurer, et al., 2005, Drug Metab Dispos. 33:175-181; Kalvasset al., 2007, Drug Metab Dispos. 35:660-666) and fti represents unbound drug fractions. […] To ensure that the low B/P ratios obtained with the TP antagonists of Table 1 were truly reflective of poor BBB permeability, the unbound fractions in plasma and brain homogenates were measured using established equilibrium dialysis methods (Maurer, et al., 2005, Drug Metab Dispos. 33:175-181; Kalvasset al., 2007, Drug Metab Dispos. 35:660-666; Friden, et al., 2007, Drug Metab Dispos. 35:1711-1719). […] This is further illustrated by comparing the calculated B/Pfree ratios (Table 1), which are <<1. Because the existing repertoire of TP receptor antagonists share common structural features, including free carboxylate moieties, it is highly unlikely that any of these existing compounds would be sufficiently brain-penetrant to be potential AD therapeutics.

mouse TP receptor = biological target: T1, mouse TP receptor (Mus musculus, UniProt P30987); assay: Radioligand binding assay (3H-SQ29,548), mouse TP receptor; settings: mTP receptor
T1 construct: expressed in transfected cells
T1 sequence (P30987 1-341): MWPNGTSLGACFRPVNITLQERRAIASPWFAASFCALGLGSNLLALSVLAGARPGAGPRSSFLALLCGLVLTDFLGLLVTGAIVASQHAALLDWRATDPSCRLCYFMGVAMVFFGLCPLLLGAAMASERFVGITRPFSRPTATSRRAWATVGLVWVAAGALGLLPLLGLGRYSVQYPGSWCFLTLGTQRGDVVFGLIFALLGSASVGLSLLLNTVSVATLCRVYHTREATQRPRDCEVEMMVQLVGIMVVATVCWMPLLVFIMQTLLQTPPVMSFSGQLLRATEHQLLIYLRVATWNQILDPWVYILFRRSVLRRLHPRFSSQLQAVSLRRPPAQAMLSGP
Protocol: (§1) QBI-HEK 293A cells expressing human or mouse TxA2 (TP) receptor were grown as described previously and harvested in phosphate-buffered saline with 1 mM EDTA. The cell pellet was homogenized in a glass homogenizer in 20 mM Hepes, 1 mM EGTA, 0.5 mM DTT with protease inhibitor cocktail. The homogenate was initially centrifuged at 1000×g for 10 minutes at 8° C. to remove cell debris. The homogenate was then centrifuged in a Beckman L8-70M ultracentrifuge (Beckman-Coulter, Brea, Calif., USA) at 21,000 rpm for 30 minutes at 4° C., and the pellet was resuspended in 20 mM Hepes, 1 mM EGTA, 100 mM NaCl. Membrane preparations were normalized to protein level as determined with a BCA assay (ThermoFisher, Rockland, Ill.) and stored at −80° C.
(§2) Test antagonists were incubated at 10 different concentrations with 25 μg membrane and 25 nM ^3H-SQ29,548 (PerkinElmer, Waltham, Mass., USA) in 50 mM Tris, 4 mM CaCl2, 0.1% ascorbic acid pH 7.5 for 2 hours at 25° C. in 96-well polystyrene plates. Separation of bound from free radioligand was accomplished by rapid vacuum filtration onto 96-well GF/B filter plates (PerkinElmer, Waltham, Mass., USA). Filters were washed 8 times in 50 mM Tris, pH 6.9 and allowed to dry for 16 hours, Plates were sealed and filters dissolved in 50 μL Betaplate Scintillation fluid (PerkinElmer, Waltham, Mass., USA) and read on a scintillation counter. Data are presented as percent total binding as calculated by a minimum of 3 wells containing membrane and ^3H-SQ29,548 without antagonist.
(§3) Equilibrium dissociation constants (Kd), IC50, and Schild regression analyses was performed with GraphPad Prism software (GraphPad Software Inc., La Jolla, Calif., USA).
(§4) To facilitate the characterization of the new compounds, cell-based TP receptor functional assays were optimized. HEK293 clones have been produced that stably express the human (hTP) or mouse (mTP) TP receptor (a isoform), and treatment of these clones with I-BOP ([1S-[1α,2α(Z),3β(1E,3S*),4α]]-7-[3-[3-hydroxy-4-(4-iodophenoxy)-1-butenyl]-7-oxabicyclo[2.2.1]hept-2-yl]-5-heptenoic acid) results in increased production of inositol triphosphate (IP3) (Knezevic, et al., 1993, Blood 82:A156; Shenker, et al., 1991, J Biol Chem 266:9309-9313; Huang, et al., 2004, Cell Signal 16:521-533) which can be quantified by measuring the breakdown product, inositol monophosphates (IP1), using a commercial time-resolved fluorescence assay. […] A radioligand binding assay was also developed to allow for the determination of binding affinities of compounds at the hTP and mTP receptors.

human TP receptor = biological target: T2, human TP receptor (Homo sapiens, UniProt P21731); assay: Radioligand binding assay (3H-SQ29,548), human TP receptor; settings: hTP receptor
T2 construct: expressed in transfected cells
T2 sequence (P21731 1-343): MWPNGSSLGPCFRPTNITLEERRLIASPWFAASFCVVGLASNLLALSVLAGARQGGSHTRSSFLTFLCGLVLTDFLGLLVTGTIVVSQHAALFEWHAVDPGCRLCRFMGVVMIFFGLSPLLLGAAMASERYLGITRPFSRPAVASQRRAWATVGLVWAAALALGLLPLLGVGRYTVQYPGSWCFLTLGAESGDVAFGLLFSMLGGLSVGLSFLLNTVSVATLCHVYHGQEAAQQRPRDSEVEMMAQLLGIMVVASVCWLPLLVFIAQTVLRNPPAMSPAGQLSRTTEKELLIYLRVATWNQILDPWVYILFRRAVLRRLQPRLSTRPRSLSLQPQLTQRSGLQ
Protocol: as §1, §2, §3, §4

[3] = Pro-drug study: plasma levels of compound and carboxylic acid hydrolysis product (51280) by LC-MS/MS; format: in vivo; settings: female mice, 5 mg/kg, 1 h after injection
Protocol: Ester and amide examples can serve as pro-drugs to release the potent carboxylic acid TP receptor antagonist CNDR-51280. Compounds in were administered at 5 mg/kg to female mice, and levels of the compound and the carboxylic acid hydrolysis product (51280) were evaluated by LC-MS/MS 1 h after injection (Table 3).

[4] = mice, 5 mg/kg i.p., 1 h after dosing
[5] = mice, 5 mg/kg i.p., 4 h after dosing
[6] = female, B6C3HF1, mouse, brain/plasma (unbound), ip, 5 mg/kg
[7] = female, B6C3HF1, mouse, brain/plasma, ip, 5 mg/kg

## CCCCCNC(=O)NS(=O)(=O)c1cc([N+](=O)[O-])ccc1NC1CCCCC1 [BM567]
[1]; mice, 5 mg/kg i.p., 1 h
  B/P (brain-to-plasma ratio): 0.01
[1]; [4]
  Brain: 40.2 ± 12.3 ng/mL
  Plasma: 3600 ± 923 ng/mL
[1]; mice, 5 mg/kg i.p., 4 h
  B/P (brain-to-plasma ratio): 0.01
[1]; [5]
  Brain: 18.5 ± 7.8 ng/mL
  Plasma: 2248 ± 1400 ng/mL
[2]; plasma, equilibrium dialysis
  fu(plasma) (fraction unbound): 0.004 +/− 0.001
[2]; ratio of unbound fractions plasma/brain
  fu(pl)/fu(br): 0.20

## O=S(=O)(NC1CCc2c(CCc3nn[nH]n3)cccc2C1)c1ccc(Cl)cc1 (centres unmarked) [Compound 51279, N-(5-(2-(2H-Tetrazol-5-yl)ethyl)-1,2,3,4-tetrahydronaphthalen-2-yl)-4-chlorobenzenesulfonamide]
Mouse TP receptor
  affinity for TP receptor: most tolerable substitutions
Mouse TP receptor; listed as CNDR-51279
  affinity for TP receptor: well tolerated
[1]; B6C3F1 mice, 5 mg/kg, 1 hour after injection
  brain penetration / brain levels of the drug: very little brain penetration
Human TP receptor
  affinity for TP receptor: most tolerable substitutions
Human TP receptor; listed as CNDR-51279
  affinity for TP receptor: well tolerated

## O=S(=O)(NC1CCc2c(CCC3OCCO3)cccc2C1)c1ccc(Cl)cc1 (centres unmarked) [Compound 51414]
[1]; B6C3F1 mice, 5 mg/kg, 1 hour after injection; 5 mg/kg
  brain penetration / brain levels of the drug: greatly increased brain levels of the drug
[1]; B6C3F1 mice, 5 mg/kg, 1 hour after injection; listed as CNDR-51414, 5 mg/kg
  brain penetration / brain levels of the drug: brain-penetrant

## O=C(CCc1cccc2c1CCC(NS(=O)(=O)c1ccc(Cl)cc1)C2)NCC(F)(F)F (centres unmarked) [Compound 51418, 3-(6-(4-Chlorophenylsullfonamido)-5,6,7,8-tetrahydronaphthalen-1-yl)-N-(2,2,2-trifluoroethyl)-propanamide]
Mouse TP receptor
  affinity for TP receptor: most tolerable substitutions
Human TP receptor
  affinity for TP receptor: most tolerable substitutions
[3]
  Plasma (compound): 109 (+/− 45) nM
  XCOOH Plasma (carboxylic acid hydrolysis product 51280): 100 (+/− 43) nM

## O=C(O)Cc1ccc(CCNS(=O)(=O)c2ccc(Cl)cc2)cc1 [Daltroban]
[1]; female, B6C3HF1, mouse, brain, ip, 5 mg/kg, Brain, mice, 5 mg/kg i.p., 1 h after dosing
  concentration at 1 h: 133 ng/mL
[1]; female, B6C3HF1, mouse, brain, ip, 5 mg/kg, Brain, mice, 5 mg/kg i.p., 4 h after dosing
  concentration at 4 h: 55.9 ng/mL
[1]; [6]
  Kp at 1 h: 0.04
  Kp at 4 h: 0.06
[1]; [7]
  Kp at 1 h: 0.02
  Kp at 4 h: 0.03
[1]; female, B6C3HF1, mouse, plasma, ip, 5 mg/kg, Plasma, mice, 5 mg/kg i.p., 1 h after dosing
  concentration at 1 h: 6450 ng/mL
[1]; female, B6C3HF1, mouse, plasma, ip, 5 mg/kg, Plasma, mice, 5 mg/kg i.p., 4 h after dosing
  concentration at 4 h: 1790 ng/mL
[2]; brain homogenate, equilibrium dialysis, read-out: fu(brain) (fraction unbound)
  fraction unbound: 0.221
[2]; plasma and brain homogenate, ratio of unbound fractions plasma/brain, read-out: fu(pl)/fu(br)
  plasma/brain unbound fraction ratio: 0.52
